Data on 2 compounds can be found in paper PMC9961652 (International Journal of Molecular Sciences, 2023).

One assay concerns washed human platelets. In words: Collagen-induced platelet aggregation, light transmission aggregometry (Born method). The class given is cell-based. The note with it: for IC50: collagen 1 µg/mL, dose-response curves, read-out: IC50 (95% CI) of platelet aggregation; for IC50 / activity at 20 µM: washed human platelets; for activity at 20 µM: compound 20 µM, means ± SDs of three experiments, 100% = agonist alone. How it is done: Light transmission aggregometry, i.e., the Born method, was used to determine in vitro antiplatelet aggregation activity using collagen as the agonist for platelet aggregation. Collagen was selected as the agonist, since it is the most thrombogenic component of the subendothelial layer. Collagen also serves as a substrate for platelet adhesion and as an inducer of platelet activation.
All experiments using human blood from healthy volunteers were performed according to the protocols approved by the Institutional Review Board at Cincinnati Children’s Hospital Medical Center, Cincinnati, Ohio. Each volunteer was required to sign an informed consent form approved by the IRB. Procedures for drawing human blood, isolating platelet-rich plasma (PRP), and preparing washed platelet suspensions were the same as those previously reported. […] PRP was obtained by means of the centrifugation of blood at 1400 rpm for 15 min at room temperature. PRP was centrifuged at 4000 rpm for 10 min at room temperature, and the platelet pellet was resuspended in HEPES Tyrode’s solution (pH 7.4) without calcium. Platelets were counted using Hemavet 950FS (Drew Scientific, Oxford, CT, USA), and the count was adjusted to 2.5 × 10^8/mL for aggregation studies.
The in vitro antiplatelet activity of the compounds was assayed on washed human platelets using light transmission aggregometry. Platelet aggregation was performed using a 4-channel Lumi-aggregometer (Chronolog, PA, USA) at 37 °C and stirring speed of 900 rpm. A volume of 250 µL of washed human platelets (2.5 × 10^8/mL) was pre-warmed to 37 °C along with the compounds or DMSO (0.1%) for 2 min before the addition of agonists such as collagen, AA, U46619 (a stable synthetic analog of thromboxane A2), ADP, and thrombin. For ATP secretion, platelets were pre-incubated with a luciferin/luciferase kit (Chrono-lume®) for 30 s at 37 °C before the addition of the agonist. The reactions were allowed to proceed for at least 4 min, and the results of platelet aggregation and ATP secretion were determined using Aggrolink software. Platelet aggregation was expressed as the maximum change in the light transmission, where the 100% value corresponded to treatment with the agonist alone. Compounds were evaluated in triplicate at nine compound concentrations ranging from 50 µM to 1 µM.

In the next assay the target is T1, RhoA-LARG interaction (Homo sapiens, UniProt P61586).
T1 construct: 100 ng of purified full-length RhoA
The assay is described as follows: In vitro complex-formation assay of RhoA with LARG DH-PH domain. Format: binding. The conditions noted are these: R-G04 25 µM or 50 µM, S-G04 5 µM or 10 µM; 4 °C, 1 h. On the procedure: (A) A complex-formation assay tested the inhibitory effects of 20 µM UC-177618 and UC-177619 on RhoA interaction with the LARG DH-PH domain. […] After incubating the compound-RhoA-LARG mixture at 4 °C for 1 h, the beads associated with RhoA were detected with anti-RhoA Western blotting. (B,C) Top view of the predicted structural contacts of UC-177618 and UC-177619 in the binding pocket around the Trp58 residue of RhoA.
(A) A complex-formation assay tested the inhibitory effects of R-G04 and S-G04 on RhoA interaction with the LARG DH-PH domain. MBP-(His)6-tagged LARG (100 ng) was immobilized on Amylose beads. Binding buffer containing full-length RhoA (100 ng) was pre-incubated with different concentrations of R-G04 (25 µM or 50 µM), and S-G04 (5 µM or 10 µM) was added to the beads. After incubating the compound-RhoA-LARG mixture at 4 °C for 1 h, the beads associated with RhoA were detected with anti-RhoA Western blotting. (B) Top view of the predicted structural contacts of R-G04 and S-G04 in the binding pocket around the Trp58 residue of RhoA.
In total, 100 ng of purified MBP (Maltose-binding protein)-(His)6-tagged LARG DH-PH was immobilized on 20 µL of suspended amylose beads (No. E8021S; New England Biolabs Inc., Ipswich, MA, USA) by incubating them in an orbital shaker at 4 °C for 30 min in binding buffer (20 mM Tris·HCl (pH 7.6), 100 mM NaCl, 0.01% Triton X-100, 5mM EDTA, and 5 mM MgCl2). The compounds were added to the binding buffer containing 100 ng of purified full-length RhoA and pre-incubated at 4 °C for 30 min under constant agitation. The Amylose beads bound to LARG were washed thrice with binding buffer to get rid of unbound LARG, and the pre-incubated compound-RhoA mixture was added to the beads. This LARG-compound-RhoA mixture was incubated in the orbital shaker at 4 °C for 1 h. The beads were washed three times, and the amount of RhoA protein co-precipitated with the MBP-fusion-bound beads was detected with anti-RhoA Western blotting.

[1] abbreviates: Platelet, read-out: % Platelet Aggregation, Collagen (1 µg/mL).
Setting [2] is: Platelet, read-out: % Platelet Aggregation, Collagen (5 µg/mL).

Read-outs that look alike come from different tables or passages of the source.

In general, IC50 refers to the point on the concentration scale where inhibition reaches its midpoint.

T1 sequence (P61586 whole entry): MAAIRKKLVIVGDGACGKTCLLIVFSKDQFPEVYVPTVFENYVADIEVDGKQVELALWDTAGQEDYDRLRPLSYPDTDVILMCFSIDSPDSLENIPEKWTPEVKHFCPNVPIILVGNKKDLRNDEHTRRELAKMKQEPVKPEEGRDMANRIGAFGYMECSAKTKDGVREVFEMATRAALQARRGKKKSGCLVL

As for `N[C@@H](Cc1c[nH]c2ccccc12)C(=O)N/N=C/c1ccc2nccnc2c1` [S-G04], the 50% inhibitory concentration (IC50) with washed human platelets (Homo sapiens, Platelet) came to 7.8 µM; in the assay with washed human platelets, 7.96 µM. Besides, the figures for the activity at 20 µM in the assay on washed human platelets (setting [1]) and in the assay on washed human platelets (setting [2]) were 9.33 ± 4.93% and 20 ± 5%, respectively. In the assay with washed human platelets (from IC50, collagen 1 µg/mL), the “potency of S-G04 relative to R-G04” value is “three times more potent than R-G04”. The “LARG binding to RhoA” value on RhoA-LARG interaction is listed as “dose-dependently suppressing LARG binding to RhoA”.

Regarding `N[C@H](Cc1c[nH]c2ccccc12)C(=O)N/N=C/c1ccc2nccnc2c1` [R-G04], the IC50 with washed human platelets (Homo sapiens, Platelet) was 22.6 µM. The activity at 20 µM in the assay with washed human platelets (setting [1]) stood at 70.3 ± 18.9%; with washed human platelets (setting [2]) it was 71.4 ± 15%. Also, the “LARG binding to RhoA” value on RhoA-LARG interaction was “dose-dependently suppressing LARG binding to RhoA”.
